The source of these data is article PMC6222781, “Structural Optimization of Foldamer-Dendrimer Conjugates as Multivalent Agents against the Toxic Effects of Amyloid Beta Oligomers” (Molecules : A Journal of Synthetic Chemistry and Natural …, 2018).

In assay [1] the target is T1, Aβ oligomers (Homo sapiens, UniProt P05067).
T1 construct: Ser^26 depsipeptide iso-Aβ (1–42) was used; made in house; host or cells: chemical peptide synthesis (no expression host)
Nature of the assay: Isothermal titration calorimetry (ITC) binding to Aβ oligomers. To be noted: PBS pH 7.4, 285 K; for Kd: Aβ 100 µM in cell, ligand 250 µM in syringe, two independent site model. How it is done:
The binding affinities of 2b–2i to Aβ oligomers were tested in ITC experiments.
In this work, Ser^26 depsipeptide iso-Aβ (1–42) was used, which was synthesized and purified as described previously. The lyophilized iso-Aβ (1–42) was dissolved in MilliQ water to a concentration of 1 mg mL^−1, sonicated for 3 min and the pH was set to 7.0 to initiate an O to N acyl migration, whereby the native sequence can be readily formed. The sample was incubated at room temperature for 10 min. Then the pH was set to 11 and the sample was kept at room temperature for additional 2 h. After the incubation, the Aβ stock solution was aliquoted and stored at −20 °C until use. To obtain Aβ oligomers, the 1 mg mL^−1 aliquot was diluted to a final concentration of 50 μM with 26.67 mM PBS and the pH was set to 7.4 with 1 M HCl. The sample was incubated at 37 °C for 3 h.
Isothermal calorimetric titrations were performed with a Microcal VP-ITC microcalorimeter in pH 7.4 PBS buffer solution. In individual titrations, 10 µL portions of the ligand containing solution were repeatedly injected from the computer-controlled 300-µL microsyringe at intervals of 300 s into the Aβ oligomer solution prepared in the same buffer as the ligand. All measurements were carried out at 285 K. The Aβ concentration in the cell was 100 µM and the total ligand concentration was 250 µM in the syringe and the titration was stopped when the precipitation of the Aβ aggregates became excessive. Control experiments were performed by injecting the ligand into a cell containing buffer with no target, and the heats of dilution were subtracted from those measured in the presence of Aβ. The experimental data were fitted to the two independent site binding models by using a nonlinear least-squares procedure, with ΔHb, ΔHb’, Kd, Kd’ ([…]), n and n’ (number of binding sites for monomer), as adjustable parameters.

The target of assay [2] is T1, Aβ oligomers. The assay can be described thus: Sandwich ELISA binding of biotin-tagged conjugates to Aβ. From the text:
To study the role of certain structure elements in the binding affinity, a set of new foldamer sequences were designed (Figure 2) and ligated to lysine-dendron scaffolds having a focal symmetry. This template with biotin affinity tag can be easily synthesized by solid phase peptide synthesis and immobilized on a streptavidin coated support such as the surface of the ELISA plate. Structural changes included fine-tuning the side-chain properties (2b–2d), changing the position of ionic residues (2e) and introducing bulky bicyclic side-chains (2f–2i).
The binding affinities of 2b–2i to Aβ oligomers were tested in ITC experiments. In such cases where the fitting failed due to low heat response or poor solubility, sandwich ELISA experiments were performed to enable the comparison of all conjugates (see Supporting Information for details).
The apparent dissociation constants for the complete set of new conjugates were calculated individually from the data of the ELISA experiments as well. Comparing the KD values of 2f–2i in this case, the replacement of ACHC to ABHC had only a minor effect on the Aβ binding. The cyclic β-amino acid ACHC not only provides the helical conformation of such a short foldamer but also protects the ionic residues from solvent upon binding due to its hydrophobicity.

The mark [3] stands for this setting: Table 2, ITC, first binding stage.
Where [4] appears, read: Table 2, ITC, second binding stage.

T1 sequence (P05067 672-713 limits assumed): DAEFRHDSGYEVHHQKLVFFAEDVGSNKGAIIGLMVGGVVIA

As for `NCCCC[C@@H](CC(=O)N[C@H]1CCCC[C@@H]1C(=O)N[C@H]1CCCC[C@@H]1C(=O)N[C@@H](CC(=O)O)CC(=O)N[C@H]1CCCC[C@@H]1C(=O)NCC(=O)NCC(=O)N[C@@H](CSC1CC(=O)N(CCC(=O)NCCCC[C@H](NC(=O)CCN2C(=O)CC(SC[C@H](NC(=O)CNC(=O)CNC(=O)[C@H]3CCCC[C@@H]3NC(=O)C[C@H](CC(=O)O)NC(=O)[C@H]3CCCC[C@@H]3NC(=O)[C@H]3CCCC[C@@H]3NC(=O)C[C@H](CCCCN)NC(=O)[C@H]3CCCC[C@@H]3N)C(N)=O)C2=O)C(=O)NCCCC[C@H](NC(=O)[C@H](CCCCNC(=O)CCN2C(=O)CC(SC[C@H](NC(=O)CNC(=O)CNC(=O)[C@H]3CCCC[C@@H]3NC(=O)C[C@H](CC(=O)O)NC(=O)[C@H]3CCCC[C@@H]3NC(=O)[C@H]3CCCC[C@@H]3NC(=O)C[C@H](CCCCN)NC(=O)[C@H]3CCCC[C@@H]3N)C(N)=O)C2=O)NC(=O)CCN2C(=O)CC(SC[C@H](NC(=O)CNC(=O)CNC(=O)[C@H]3CCCC[C@@H]3NC(=O)C[C@H](CC(=O)O)NC(=O)[C@H]3CCCC[C@@H]3NC(=O)[C@H]3CCCC[C@@H]3NC(=O)C[C@H](CCCCN)NC(=O)[C@H]3CCCC[C@@H]3N)C(N)=O)C2=O)C(=O)N[C@@H](CCCCNC(=O)CCCC[C@@H]2SC[C@@H]3NC(=O)N[C@@H]32)C(N)=O)C1=O)C(N)=O)NC(=O)[C@H]1CCCC[C@@H]1N` (some centres unmarked) [Compound 2b], the Kd amounted to 53.2 ± 38.7 nM at Aβ oligomers [1] (KD ITC, first binding stage, Table 1); 373 ± 104 nM at Aβ oligomers [1] (KD ITC, second binding stage, Table 1); 5.36 ± 1.42 nM on Aβ oligomers [2].

Regarding `N=C(N)NCCC[C@H](NC(=O)[C@H]1CCCC[C@@H]1N)C(=O)N[C@H]1CCCC[C@@H]1C(=O)N[C@H]1CCCC[C@@H]1C(=O)N[C@@H](CC(=O)O)C(=O)N[C@H]1CCCC[C@@H]1C(=O)NCC(=O)NCC(=O)N[C@@H](CSC1CC(=O)N(CCC(=O)NCCCC[C@H](NC(=O)CCN2C(=O)CC(SC[C@H](NC(=O)CNC(=O)CNC(=O)[C@H]3CCCC[C@@H]3NC(=O)[C@H](CC(=O)O)NC(=O)[C@H]3CCCC[C@@H]3NC(=O)[C@H]3CCCC[C@@H]3NC(=O)[C@H](CCCNC(=N)N)NC(=O)[C@H]3CCCC[C@@H]3N)C(N)=O)C2=O)C(=O)NCCCC[C@H](NC(=O)[C@H](CCCCNC(=O)CCN2C(=O)CC(SC[C@H](NC(=O)CNC(=O)CNC(=O)[C@H]3CCCC[C@@H]3NC(=O)[C@H](CC(=O)O)NC(=O)[C@H]3CCCC[C@@H]3NC(=O)[C@H]3CCCC[C@@H]3NC(=O)[C@H](CCCNC(=N)N)NC(=O)[C@H]3CCCC[C@@H]3N)C(N)=O)C2=O)NC(=O)CCN2C(=O)CC(SC[C@H](NC(=O)CNC(=O)CNC(=O)[C@H]3CCCC[C@@H]3NC(=O)[C@H](CC(=O)O)NC(=O)[C@H]3CCCC[C@@H]3NC(=O)[C@H]3CCCC[C@@H]3NC(=O)[C@H](CCCNC(=N)N)NC(=O)[C@H]3CCCC[C@@H]3N)C(N)=O)C2=O)C(=O)N[C@@H](CCCCNC(=O)CCCC[C@@H]2SC[C@@H]3NC(=O)N[C@@H]32)C(N)=O)C1=O)C(N)=O` (some centres unmarked) [Compound 2d], the Kd on Aβ oligomers [2] came to 7.7 ± 3.06 nM.

Regarding `CC(=O)N[C@@H](CCCCNC(=O)CCN1C(=O)CC(SC[C@H](NC(=O)CNC(=O)CNC(=O)[C@H]2CCCC[C@@H]2NC(=O)C[C@H](CC(=O)O)NC(=O)[C@H]2CCCC[C@@H]2NC(=O)[C@H]2CCCC[C@@H]2NC(=O)C[C@H](CCCNC(=N)N)NC(=O)[C@H]2CCCC[C@@H]2N)C(N)=O)C1=O)C(=O)NCC(=O)N[C@@H](CCCCNC(=O)CCN1C(=O)CC(SC[C@H](NC(=O)CNC(=O)CNC(=O)[C@H]2CCCC[C@@H]2NC(=O)C[C@H](CC(=O)O)NC(=O)[C@H]2CCCC[C@@H]2NC(=O)[C@H]2CCCC[C@@H]2NC(=O)C[C@H](CCCNC(=N)N)NC(=O)[C@H]2CCCC[C@@H]2N)C(N)=O)C1=O)C(=O)NCC(=O)N[C@@H](CCCCNC(=O)CCN1C(=O)CC(SC[C@H](NC(=O)CNC(=O)CNC(=O)[C@H]2CCCC[C@@H]2NC(=O)C[C@H](CC(=O)O)NC(=O)[C@H]2CCCC[C@@H]2NC(=O)[C@H]2CCCC[C@@H]2NC(=O)C[C@H](CCCNC(=N)N)NC(=O)[C@H]2CCCC[C@@H]2N)C(N)=O)C1=O)C(=O)NCC(=O)N[C@@H](CCCCNC(=O)CCN1C(=O)CC(SC[C@H](NC(=O)CNC(=O)CNC(=O)[C@H]2CCCC[C@@H]2NC(=O)C[C@H](CC(=O)O)NC(=O)[C@H]2CCCC[C@@H]2NC(=O)[C@H]2CCCC[C@@H]2NC(=O)C[C@H](CCCNC(=N)N)NC(=O)[C@H]2CCCC[C@@H]2N)C(N)=O)C1=O)C(N)=O` (some centres unmarked) [Compound 8], on Aβ oligomers [1] (setting [3]), the “ΔG, first binding stage” value was -11.07 kcal/M and the “ΔH, first binding stage” value was 2.31 kcal/M. Moreover, on Aβ oligomers [1] (setting [4]), the “ΔG, second binding stage” value was -8.48 kcal/M and the “ΔH, second binding stage” value was 0.51 kcal/M.

Compound `N=C(N)NCCC[C@@H](CC(=O)N[C@H]1CCCC[C@@H]1C(=O)N[C@@H](CC(=O)O)CC(=O)N[C@H]1CCCC[C@@H]1C(=O)NCC(=O)NCC(=O)N[C@@H](CSC1CC(=O)N(CCC(=O)NCCCC[C@H](NC(=O)CCN2C(=O)CC(SC[C@H](NC(=O)CNC(=O)CNC(=O)[C@H]3CCCC[C@@H]3NC(=O)C[C@H](CC(=O)O)NC(=O)[C@H]3CCCC[C@@H]3NC(=O)C[C@H](CCCNC(=N)N)NC(=O)[C@H]3CCCC[C@@H]3NC(=O)[C@H]3CCCC[C@@H]3N)C(N)=O)C2=O)C(=O)NCCCC[C@H](NC(=O)[C@H](CCCCNC(=O)CCN2C(=O)CC(SC[C@H](NC(=O)CNC(=O)CNC(=O)[C@H]3CCCC[C@@H]3NC(=O)C[C@H](CC(=O)O)NC(=O)[C@H]3CCCC[C@@H]3NC(=O)C[C@H](CCCNC(=N)N)NC(=O)[C@H]3CCCC[C@@H]3NC(=O)[C@H]3CCCC[C@@H]3N)C(N)=O)C2=O)NC(=O)CCN2C(=O)CC(SC[C@H](NC(=O)CNC(=O)CNC(=O)[C@H]3CCCC[C@@H]3NC(=O)C[C@H](CC(=O)O)NC(=O)[C@H]3CCCC[C@@H]3NC(=O)C[C@H](CCCNC(=N)N)NC(=O)[C@H]3CCCC[C@@H]3NC(=O)[C@H]3CCCC[C@@H]3N)C(N)=O)C2=O)C(=O)N[C@@H](CCCCNC(=O)CCCC[C@@H]2SC[C@@H]3NC(=O)N[C@@H]32)C(N)=O)C1=O)C(N)=O)NC(=O)[C@H]1CCCC[C@@H]1NC(=O)[C@H]1CCCC[C@@H]1N` (some centres unmarked) [Compound 2e] yielded an equilibrium dissociation constant (Kd) at Aβ oligomers [2] of 2.71 ± 0.21 nM.

Take `N=C(N)NCCC[C@@H](CC(=O)N[C@H]1CCCC[C@@H]1C(=O)N[C@H]1CCCC[C@@H]1C(=O)N[C@@H](CC(=O)O)CC(=O)N[C@H]1CCCC[C@@H]1C(=O)NCC(=O)NCC(=O)N[C@@H](CSC1CC(=O)N(CCC(=O)NCCCCC(=O)NCCN(CCNC(=O)CCCCNC(=O)CCN2C(=O)CC(SC[C@H](NC(=O)CNC(=O)CNC(=O)[C@H]3CCCC[C@@H]3NC(=O)C[C@H](CC(=O)O)NC(=O)[C@H]3CCCC[C@@H]3NC(=O)[C@H]3CCCC[C@@H]3NC(=O)C[C@H](CCCNC(=N)N)NC(=O)[C@H]3CCCC[C@@H]3N)C(N)=O)C2=O)CCNC(=O)CCCCNC(=O)CCN2C(=O)CC(SC[C@H](NC(=O)CNC(=O)CNC(=O)[C@H]3CCCC[C@@H]3NC(=O)C[C@H](CC(=O)O)NC(=O)[C@H]3CCCC[C@@H]3NC(=O)[C@H]3CCCC[C@@H]3NC(=O)C[C@H](CCCNC(=N)N)NC(=O)[C@H]3CCCC[C@@H]3N)C(N)=O)C2=O)C1=O)C(N)=O)NC(=O)[C@H]1CCCC[C@@H]1N` (some centres unmarked) [Compound 4]: the Kd at Aβ oligomers [1] (Table 2, first binding stage, read-out: KD, first binding stage) stood at 18.5 ± 13.9 nM; at Aβ oligomers [1] (Table 2, second binding stage, read-out: KD, second binding stage) it was 155 ± 131 nM.
